Six compounds from publication PMC11876601 (Molecular Systems Biology, 2025) can be followed below.

One test has as its system 13 PDAC cell lines. The test is described as follows: Phenotypic drug combination viability screen (ATPlite, 72 h), cell line panel. To be noted: for synergy with GEM (Bliss model, ΣAUC∆ > 10%): any of the cell lines, GEM low and GEM high; for median AUC across all cell lines: single agent, 72 h. The test is classed as cell-based, human. On the procedure:
(§1) Cell viability was assessed by measuring ATP levels to indicate metabolic activity.
(§2) Afterward, small amounts were transferred to 384-well intermediate plates (Greiner Bio-One GmbH, Germany). […] For drug combination screening, 1000 to 5000 cells were seeded into 384-well plates (CulturPlate™, Perkin Elmer, MA, USA) using a Multidrop™ Combi Reagent Dispenser (Thermo Scientific, MA, USA) in 50 µl medium per well 24 h prior to drug treatment (seeding densities see Appendix Table S1). […] The final DMSO concentration in each well was 0.2%. […] Eight wells per plate without library drug served as negative controls, and sixteen wells per plate containing 5 µM Staurosporine served as positive controls. Control plates not containing any drug were used to correct for incubation effects, and data quality was assessed by calculation of Z-prime of positive and negative controls according to1 Z-prime=1−3SDpos+3SDneg/[…] where SD is the standard deviation. […] Dose–response curves from the experimental and hypothetical data were compared, and shifts in AUC were used to describe combination effects (AUC∆ = AUChypothetical − AUCexperimental). […] Only combinations with R^2 > 0.8 in both conditions were considered in the synergy analysis.

For test [1], the system named is HPDE (immortalized pancreatic duct cell line). The test can be described thus: Drug combination viability screen (ATPlite, 72 h).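 Further: area under vehicle-normalized viability curve scaled 0 to 100 percent.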 The test is classed as cell-based, human. The conditions noted are these: single agent, HPDE. How it is done: as §1, §2
For orientation: Cellular ATP, detected with luciferase, serves as a proxy for viable cell number.

Another test has as its system BxPC-3. The test is described as follows: cells. The conditions noted are these: Homo sapiens, BXPC-3, 72 h, read-out: EC50 [nM]. Further details: ATPlite luminescence viability of PDAC cell lines, 11-dose single-agent curves, 4-parameter fit. The essentials: (§3)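 cells (1000 to 5000 per well) seeded 24 h before drug addition in a combination screen at 0.2% final DMSO. Controls were drug-free wells (negative) and 5 µM staurosporine (positive).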

Another test concerns Colo-357. The test is described as follows: cells. The arrangement: ATPlite luminescence viability of PDAC cell lines, 11-dose single-agent curves, 4-parameter fit. To be noted: Homo sapiens, COLO357, 72 h, read-out: EC50 [nM]. The essentials:
as §3

For test [2], the system named is HuP-T4. The test is described as follows: cells. The arrangement: ATPlite luminescence viability of PDAC cell lines, 11-dose single-agent curves, 4-parameter fit. The conditions noted are these: Homo sapiens, HuP-T4, 72 h, read-out: EC50 [nM]. The essentials:
as §3

A further test concerns PaTu-8988-T. The test can be described thus: cells. The arrangement: ATPlite luminescence viability of PDAC cell lines, 11-dose single-agent curves, 4-parameter fit. The conditions noted are these: Homo sapiens, PaTu 8988t, 72 h, read-out: EC50 [nM]. The gist of the method:
as §3

Another test relates to PSN-1. The test can be described thus: cells. The arrangement: ATPlite luminescence viability of PDAC cell lines, 11-dose single-agent curves, 4-parameter fit. The conditions noted are these: Homo sapiens, PSN1, 72 h, read-out: EC50 [nM]. The essentials:
as §3

A further test relates to Capan-1. The test is described as follows: cells. The arrangement: ATPlite luminescence viability of PDAC cell lines, 11-dose single-agent curves, 4-parameter fit. The conditions noted are these: Homo sapiens, CAPAN-1, 72 h, read-out: EC50 [nM]. The essentials: as §3
The next test concerns MiaPaCa-2. The test can be described thus: cells. To be noted: Homo sapiens, MIA PaCa-2, 72 h, read-out: EC50 [nM]. Further details: ATPlite luminescence viability of PDAC cell lines, 11-dose single-agent curves, 4-parameter fit. The gist of the method: as §3
The test system of the next test is Dan-G. The test is described as follows: cells. The arrangement: ATPlite luminescence viability of PDAC cell lines, 11-dose single-agent curves, 4-parameter fit. The conditions noted are these: 72 h, read-out: EC50 [nM]. The essentials:
as §3

Another test deals with AsPC-1. The test is described as follows: cells. The conditions noted are these: Homo sapiens, ASPC1, 72 h, read-out: EC50 [nM]. Further details: ATPlite luminescence viability of PDAC cell lines, 11-dose single-agent curves, 4-parameter fit. The gist of the method: as §3
In the next test the test system is PANC-1. The test can be described thus: cells. The arrangement: ATPlite luminescence viability of PDAC cell lines, 11-dose single-agent curves, 4-parameter fit. The conditions noted are these: Homo sapiens, PANC-1, 72 h, read-out: EC50 [nM]. The essentials: as §3
For another test, the system named is FAMPAC. The test can be described thus: cells. The arrangement: ATPlite luminescence viability of PDAC cell lines, 11-dose single-agent curves, 4-parameter fit. To be noted: 72 h, read-out: EC50 [nM]. The essentials:
as §3

In another test the test system is Suit2-07. The test can be described thus: cells. The arrangement: ATPlite luminescence viability of PDAC cell lines, 11-dose single-agent curves, 4-parameter fit. The conditions noted are these: 72 h, read-out: EC50 [nM]. The essentials: as §3
Another test relates to HPDE. The test is described as follows: cells. Further details: ATPlite luminescence viability of PDAC cell lines, 11-dose single-agent curves, 4-parameter fit. To be noted: HPDE, 72 h, read-out: EC50 [nM]. The gist of the method:
as §3

The subject of test [3] is HuP-T4. The test can be described thus: cells. The arrangement: Viability of PDAC cell lines, ATPlite luminescence, 11-dose single-agent curve fit. To be noted: Homo sapiens, HuP-T4, 72 h, read-out: EC50 [nM]. The essentials:
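cells (1000 to 5000 per well) seeded 24 h before drug addition in a screen at 0.2% final DMSO. Controls were drug-free wells (negative) and 5 µM staurosporine (positive).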

As a reminder, the EC50 is the concentration at which the effect is half-maximal.

Structures are written as SMILES. Like-named read-outs stand apart in the source and are kept apart here. A value given as a limit tells only on which side of the number the result lay.

With `CCc1cnn2c(NCc3ccc[n+]([O-])c3)cc(N3CCCC[C@H]3CCO)nc12` [Dinaciclib], in the test on 13 PDAC cell lines, the “synergy with GEM (Bliss model, ΣAUC∆ > 10%)” value was “No synergy” and the “median AUC across all cell lines” value was 40%. For the same compound, the AUC in [1] is given as 38%.

As for `O=C(c1ccc(F)c(F)c1Nc1ccc(I)cc1F)N1CC(O)([C@@H]2CCCCN2)C1` [Cobimetinib], the “median AUC across all cell lines” value in the test with 13 PDAC cell lines is less than 70%. For the same compound, the 50% effective concentration (EC50) was 101 nM with BxPC-3; 5300 nM in the test on Colo-357; more than 10000 nM in the test with HuP-T4 [2]; 5570 nM with PaTu-8988-T; 12.3 nM with PSN-1; 8510 nM in the test with Capan-1. Besides, the 50% effective concentration (EC50) is 6.21 nM with MiaPaCa-2; more than 10000 nM in the test on Dan-G; 13.7 nM with AsPC-1; more than 10000 nM in the test on PANC-1; 39.5 nM in the test with FAMPAC; 752 nM in the test with Suit2-07. Further, the 50% effective concentration (EC50) in the test with HPDE worked out at 4490 nM.

In the case of `CC(C)n1nc(-c2ccc3oc(N)nc3c2)c2c(N)ncnc21` [Sapanisertib], the “median AUC across all cell lines” value with 13 PDAC cell lines was 54%. Besides, the EC50 came out at 11.2 nM in the test on BxPC-3; 10.8 nM in the test with Colo-357; 1510 nM in the test on HuP-T4 [2]; 3.95 nM with PaTu-8988-T; 23.2 nM with PSN-1; 135 nM in the test on Capan-1. For the same compound, the EC50 in the test on MiaPaCa-2 is 10.1 nM; in the test on Dan-G, 8.08 nM; in the test on AsPC-1, 1.5 nM; in the test on PANC-1, 70.5 nM; in the test with FAMPAC, 2.05 nM; in the test on Suit2-07, 14.2 nM. Besides, the EC50 in the test with HPDE came out at 11.7 nM. Also, the AUC in test [1] was less than 60%.

With `COc1c(OCCCN2CCOCC2)ccc2c1N=C(NC(=O)c1cnc(N)nc1)N1CCN=C21` [Copanlisib], the “median AUC across all cell lines” value in the test with 13 PDAC cell lines is less than 70%. The EC50 in the test on BxPC-3 turned out to be 113 nM; with Colo-357, 17.6 nM; in the test on HuP-T4 [2], 48 nM; with PaTu-8988-T, 101 nM; with PSN-1, 787 nM; in the test on Capan-1 it was 21.6 nM. The EC50 in the test on MiaPaCa-2 was determined as 65.6 nM; with Dan-G, 29.8 nM; in the test with AsPC-1, 175 nM; in the test with PANC-1, 58.8 nM; in the test on FAMPAC it was 1110 nM; in the test on Suit2-07 it was 108 nM. The EC50 with HPDE is 283 nM.

For `CC[C@@H]1C(=O)N(C)c2cnc(Nc3ccc(C(=O)N[C@H]4CC[C@H](N5CCN(CC6CC6)CC5)CC4)cc3OC)nc2N1C(C)C` [Volasertib], the “synergy with GEM (Bliss model, ΣAUC∆ > 10%)” value in the test on 13 PDAC cell lines is given as “No synergy”. In the test with 13 PDAC cell lines, the “median AUC across all cell lines” value is on record as 54%. Moreover, the half-maximal effective concentration (EC50) with BxPC-3 was 25.2 nM; in the test on Colo-357 it was 19.8 nM; with HuP-T4 [2], more than 10000 nM; in the test on PaTu-8988-T, 33.8 nM; with PSN-1, 16.4 nM; in the test on Capan-1, 32.3 nM. Also, the EC50 in the test with MiaPaCa-2 came to 12.8 nM; in the test on Dan-G, 29.1 nM; in the test on AsPC-1 it was 21.1 nM; with PANC-1 it was 37.7 nM; with FAMPAC, 19.9 nM; in the test with Suit2-07, 19 nM. Also, in the test with HPDE, the EC50 is more than 10000 nM.

As for `O=C(Cc1ccc(-c2ccc(OCCN3CCOCC3)cc2)cn1)NCc1ccccc1` [Tirbanibulin], the EC50 in the test on HuP-T4 [3] came out at 10300 nM; with BxPC-3 it was 29.9 nM; in the test on Colo-357, 37.7 nM; in the test with PaTu-8988-T it was 33 nM; in the test with PSN-1 it was 30.7 nM; in the test on Capan-1, 43.4 nM. In addition, the EC50 in the test with MiaPaCa-2 was 26.3 nM; in the test with Dan-G it was 31.9 nM; with AsPC-1, 41.9 nM; in the test with PANC-1 it was 28.6 nM; with FAMPAC, 33.1 nM; in the test with Suit2-07, 45 nM. Moreover, the 50% effective concentration (EC50) with HPDE turned out to be 39.9 nM. In addition, in the test with 13 PDAC cell lines, the “median AUC across all cell lines” value is listed as 60%.
